Reference: patent publication US9771405B2, “Nucleic acids encoding for chimeric natriuretic polypeptides with unique pharmacologic profiles” (Mayo Foundation for Medical Education and Research, priority 2008, dated 2017)

Assay: BAA-NP, BUA-NP or human BNP infusion in anesthetized dogs: renal, hemodynamic and neurohumoral measurements
Assay type: in vivo, dog
Settings: for net renal generation of cGMP / plasma cGMP / urinary cGMP excretion / urinary sodium excretion / urine flow: 30 and 60 minutes of infusion vs. pre-infusion; for plasma ANP immunoreactivity / plasma CNP immunoreactivity: RIA; for glomerular filtration rate: inulin clearance; for mean arterial pressure / renal perfusion pressure: BNP at equimolar dose; for renal perfusion pressure: mean arterial pressure minus right atrial pressure
Protocol: BAA-NP and BUA-NP were reconstituted in normal saline and were infused at 1 mL/minute. Dogs were maintained on a Na^+-controlled diet (Hill's i/d® canine diet, Hill's Pet Nutrition, Inc., Topeka, Kans.). In the evening before the experiment, the dog was fasted with ad lib access to water and was given lithium carbonate 300 mg orally for assessment of renal tubular function on the next day.
On the day of the experiment, the dog was anesthetized with pentobarbital sodium (induction 6-20 mg/kg i.v., maintenance 5-15 mg/kg/h i.v.) and fentanyl (0.04-0.12 mg/kg i.v., maintenance 0.04-0.18 mg/kg/h), and was intubated and mechanically ventilated (Harvard Apparatus, Holliston, Mass.) with 3 L/minute of 02 (tidal volume 15 mL/kg, 12 cycles/minute). The femoral artery was cannulated for blood pressure monitoring and for blood sampling. The femoral vein was cannulated for infusion of inulin and normal saline. The saphenous vein was cannulated for polypeptide infusion. A balloon-tipped thermodilution catheter (Edwards Lifesciences, Irvine, Calif.) was used for monitoring hemodynamics and body temperature (maintained at 38±1° C.). Cardiac output (CO) was measured in triplicate and averaged (model 9510-A, American Edwards Laboratories, Irvine, Calif.). Hemodynamic data were digitally recorded and analyzed (Sonometrics Corporation, London, ON). The left kidney was exposed via a flank incision. The ureter was cannulated for timed urine collection. An electromagnetic flow probe was placed on the renal artery for measuring renal blood flow (Burnett et al., Am. J. Physiol., 247(5 Pt 2):F863-6 (1984)). A weight-adjusted bolus of inulin was given, followed by an inulin infusion (1 mL/minute) to achieve plasma levels of 40-60 mg/dL (Burnett et al., Am. J. Physiol., 247(5 Pt 2):F863-6 (1984); Chen et al., Am. J. Physiol. Regul. Integr. Comp. Physiol., 288(5):R1093-7 (2005); and Margulies et al., J. Clin. Invest., 88(5):1636-42 (1991)), for measuring GFR by inulin clearance. Normal saline was infused (1 mL/minute) and was temporarily discontinued during peptide infusion (1 mL/minute).
Following equilibration of approximately 60 minutes in duration, the BAA-NP or BUA-NP polypeptide was infused for 75 minutes. Hemodynamic and renal data, as well as blood and urine samples, were collected for each 30-minute clearance: pre-infusion, at 30 and 60 minutes of infusion (time denotes mid-clearance). Inulin clearance was used for measuring glomerular filtration rate (GFR). The lithium clearance technique was used for quantifying proximal and distal fractional reabsorption of Na^+ (PFRNa and DFRNa, respectively).
Plasma and urinary ANP, CNP, and cGMP were measured by radioimmunoassays (RIA) (Chen et al., Am. J. Physiol. Regul. Integr. Comp. Physiol., 288(5):R1093-7 (2005); Burnett et al., Science, 231(4742):1145-7 (1986); Steiner et al., J. Biol. Chem., 247(4):1106-13 (1972); Supaporn et al., Kidney Int., 50(5):1718-25 (1996); and Cataliotti et al., Am. J. Physiol., 283(3):F464-72 (2002)). Plasma renin activity (Haber et al., J. Clin. Endocrinol. Metab., 29(10):1349-55 (1969)), angiotensin II (Luchner et al., Hypertension, 28(3):472-7 (1996)), and aldosterone (Sancho and Haber, J. Clin. Endocrinol. Metab., 47(2):391-6 (1978)) were quantified. Plasma and urinary lithium levels were measured by flame emission spectrophotometry (model 357, Instrumentation Laboratory, Wilmington, Mass.) (Margulies et al., J. Clin. Invest., 88(5):1636-42 (1991)). The lithium clearance technique (CLLi) was used to assess PFRNa and DFRNa as follows (Chen et al., Am. J. Physiol. Regul. Integr. Comp. Physiol., 288(5):R1093-7 (2005)): PFRNa=[1−(CLLi/GFR)]×100 and DFRNa=[(CLLi−CLNa)/CLLi]×100, where CLLi=[urine Li^+]×urine flow/[plasma Li^+] and CLNa=[urine Na^+]×urine flow/[plasma Na^+]. Net renal production of cGMP was determined (Margulies et al., J. Clin. Invest., 88(5):1636-42 (1991)): (urinary cGMP×urine flow rate)−(plasma cGMP×GFR). […]

[1] = anesthetized dogs, i.v. infusion
[2] = anesthetized dogs, i.v. infusion, vs. pre-infusion
[3] = anesthetized dogs, i.v. infusion, lithium clearance technique, vs. pre-infusion
[4] = at 30 minutes of infusion, BNP compared to BAA-NP or BUA-NP, equimolar dose
[5] = at 60 minutes of infusion, BNP compared to BAA-NP or BUA-NP, equimolar dose

SLRRSSCFGRKMDRISSSSG-LGCNSFRY (SLRRSSCFGRKMDRISSSSGLGCNSFRY) [BAA-NP, 28-residue chimeric natriuretic polypeptide: human ANP residues 1-6, human mature BNP residues 10-26, human ANP residues 24-28]
net renal generation of cGMP [1]: significantly increased | plasma cGMP [1]: significantly increased | urinary cGMP excretion [1]: significantly increased | urinary sodium excretion [1]: significantly increased | urine flow [1]: significantly increased | plasma ANP immunoreactivity [2]: significantly increased | plasma CNP immunoreactivity [2]: significantly increased | glomerular filtration rate [2]: preserved | distal fractional reabsorption of sodium [3]: significantly reduced | proximal fractional reabsorption of sodium [3]: significantly reduced | cardiac output [2]: preserved | hematocrit (hemoconcentration) [2]: significant increase | plasma aldosterone [2]: significantly suppressed | plasma angiotensin II [2]: significantly suppressed | plasma renin activity [2]: significantly suppressed | pulmonary arterial pressure [2]: significantly reduced | pulmonary capillary pressure [2]: significantly reduced | renal blood flow [2]: significantly enhanced | renal vascular resistance [2]: significantly reduced | right atrial pressure [2]: significantly reduced | urinary excretion of ANP [2]: significantly increased | urinary excretion of CNP [2]: significantly increased | urinary potassium excretion [2]: significantly increased | mean arterial pressure [2]: mild decrease | change in renal perfusion pressure from baseline [4]: preserved | change in renal perfusion pressure from baseline [5]: preserved

TAPRSLRRSSCFGRKMDRIS-SSSGLGCNSFRY (TAPRSLRRSSCFGRKMDRISSSSGLGCNSFRY) [BUA-NP, 32-residue chimeric natriuretic polypeptide: human urodilatin residues 1-10, human mature BNP residues 10-26, ANP C-terminus]
activation of cGMP (BUA-NP compared with BAA-NP): greater activation | distal fractional reabsorption of sodium (BUA-NP compared with BAA-NP): greater reductions | natriuresis and diuresis (BUA-NP compared with BAA-NP): enhanced | proximal fractional reabsorption of sodium (BUA-NP compared with BAA-NP): greater reductions | net renal generation of cGMP [1]: significantly increased | plasma cGMP [1]: significantly increased | urinary cGMP excretion [1]: significantly increased | urinary sodium excretion [1]: significantly increased | urine flow [1]: significantly increased | plasma ANP immunoreactivity [2]: significantly increased | plasma CNP immunoreactivity [2]: significantly increased | glomerular filtration rate [2]: preserved | distal fractional reabsorption of sodium [3]: significantly reduced | proximal fractional reabsorption of sodium [3]: significantly reduced | renal perfusion pressure [2]: preserved | cardiac output [2]: preserved | hematocrit (hemoconcentration) [2]: significant increase | pulmonary arterial pressure [2]: significantly reduced | pulmonary capillary pressure [2]: significantly reduced | renal blood flow [2]: significantly enhanced | renal vascular resistance [2]: significantly reduced | right atrial pressure [2]: significantly reduced | urinary potassium excretion [2]: significantly increased | mean arterial pressure [2]: mild decrease | change in renal perfusion pressure from baseline [4]: preserved | change in renal perfusion pressure from baseline [5]: preserved

human BNP: human BNP natriuretic polypeptide, comparator infused at equimolar dose [reference compound]
renal perfusion pressure [2]: significantly reduced | mean arterial pressure [2]: significantly reduced | change in mean arterial pressure from baseline [4]: significantly greater reduction | change in renal perfusion pressure from baseline [4]: significantly greater decreases | change in renal perfusion pressure from baseline [5]: significantly greater decreases | change in mean arterial pressure from baseline (at 60 minutes of infusion, BNP versus BAA-NP): greater decrease
